Results: patent publication US20200079758A1, “[4-(PHENYLSULFONYL)PIPERAZIN-1-YL](1H-1,2,3-TRIAZOL-4-YL)METHANONES” (priority 2016, published 2020)

Each compound was assayed against T1, recombinant human AKR1C3 (Homo sapiens, UniProt P42330) (assay: AKR1C3-inhibitory activity assay (generation of Coumberol from Coumberone)). Conditions: Coumberone 0.3 μM, NADPH 10 μM, 22° C., typically 90 min, average or median values.
T1 construct: GST (cleaved yes); made in house; host or cells: E. coli
T1 sequence (P42330 1-323): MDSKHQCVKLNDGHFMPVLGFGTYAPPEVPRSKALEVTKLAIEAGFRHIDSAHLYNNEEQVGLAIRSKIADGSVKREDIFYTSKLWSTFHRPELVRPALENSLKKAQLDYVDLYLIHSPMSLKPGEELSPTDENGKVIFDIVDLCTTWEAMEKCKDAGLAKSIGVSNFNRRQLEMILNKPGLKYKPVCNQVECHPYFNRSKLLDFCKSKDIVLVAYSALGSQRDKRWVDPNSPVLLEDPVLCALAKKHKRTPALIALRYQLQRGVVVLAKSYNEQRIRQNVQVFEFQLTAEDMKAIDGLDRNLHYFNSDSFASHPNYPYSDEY
Assay type: biochemical
Outline: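 Recombinant human AKR1C3 (E. coli GST fusion, GST removed; ~1 nM) preincubated 15 min with compound, then NADPH 10 μM and Coumberone 0.3 μM (final), 22 °C, typically 90 min, in 50 mM K-phosphate pH 7. Stopped with EM-1404 (1 μM final); Coumberol fluorescence read at 520 nm (ex 380 nm), normalized to no-inhibitor and no-enzyme controls.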

IC50 | SMILES
1 nM | Cc1ccc(C)c(S(=O)(=O)N2C[C@H](C)N(C(=O)c3cnn[nH]3)C[C@H]2C)c1 [Example 70, {(2S,5R)-4-[(2,5-dimethylphenyl)sulfonyl]-2,5-dimethylpiperazin-1-yl}(1H-1,2,3-triazol-5-yl)methanone]
22 nM | C[C@@H]1CN(C(=O)c2cnn[nH]2)[C@@H](C)CN1S(=O)(=O)c1ccc(OC(F)(F)F)cc1 [Example 71, [(2S,5R)-2,5-dimethyl-4-{[4-(trifluoromethoxy)phenyl]sulfonyl}piperazin-1-yl](1H-1,2,3-triazol-5-yl)methanone]
2 nM | C[C@@H]1CN(C(=O)c2cnn[nH]2)[C@@H](C)CN1S(=O)(=O)c1ccccc1OC(F)(F)F [Example 72, [(2S,5R)-2,5-dimethyl-4-{[2-(trifluoromethoxy)phenyl]sulfonyl}piperazin-1-yl](1H-1,2,3-triazol-5-yl)methanone]
1 nM | C[C@@H]1CN(C(=O)c2cnn[nH]2)[C@@H](C)CN1S(=O)(=O)c1ccccc1Cl [Example 73, {(2S,5R)-4-[(2-chlorophenyl)sulfonyl]-2,5-dimethylpiperazin-1-yl}(1H-1,2,3-triazol-5-yl)methanone]
1 nM | C[C@@H]1CN(C(=O)c2cnn[nH]2)[C@@H](C)CN1S(=O)(=O)c1cccc(Cl)c1 [Example 74, {(2S,5R)-4-[(3-chlorophenyl)sulfonyl]-2,5-dimethylpiperazin-1-yl}(1H-1,2,3-triazol-5-yl)methanone]
1 nM | Cc1cccc(S(=O)(=O)N2C[C@H](C)N(C(=O)c3cnn[nH]3)C[C@H]2C)c1 [Example 75, {(2S,5R)-2,5-dimethyl-4-[(3-methylphenyl)sulfonyl]piperazin-1-yl}(1H-1,2,3-triazol-5-yl)methanone]
1 nM | C[C@@H]1CN(C(=O)c2cnn[nH]2)[C@@H](C)CN1S(=O)(=O)c1ccccc1Br [Example 76, {(2S,5R)-4-[(2-bromophenyl)sulfonyl]-2,5-dimethylpiperazin-1-yl}(1H-1,2,3-triazol-5-yl)methanone]
2 nM | Cc1c(Cl)cccc1S(=O)(=O)N1C[C@H](C)N(C(=O)c2cnn[nH]2)C[C@H]1C [Example 77, {(2S,5R)-4-[(3-chloro-2-methylphenyl)sulfonyl]-2,5-dimethylpiperazin-1-yl}(1H-1,2,3-triazol-5-yl)methanone]
1 nM | C[C@@H]1CN(C(=O)c2cnn[nH]2)[C@@H](C)CN1S(=O)(=O)c1cccc(Br)c1 [Example 78, {(2S,5R)-4-[(3-bromophenyl)sulfonyl]-2,5-dimethylpiperazin-1-yl}(1H-1,2,3-triazol-5-yl)methanone]
2 nM | C[C@@H]1CN(C(=O)c2cnn[nH]2)[C@@H](C)CN1S(=O)(=O)c1c(F)cccc1F [Example 79, {(2S,5R)-4-[(2,6-difluorophenyl)sulfonyl]-2,5-dimethylpiperazin-1-yl}(1H-1,2,3-triazol-5-yl)methanone]
104 nM | CC(=O)Nc1cccc(S(=O)(=O)N2C[C@H](C)N(C(=O)c3cnn[nH]3)C[C@H]2C)c1 [Example 80, N-(3-{[(2R,5S)-2,5-dimethyl-4-(1H-1,2,3-triazol-5-ylcarbonyl)piperazin-1-yl]sulfonyl}phenyl)acetamide]
32 nM | C[C@@H]1CN(C(=O)c2cnn[nH]2)[C@@H](C)CN1S(=O)(=O)c1cccc(S(C)(=O)=O)c1 [Example 81, [(2S,5R)-2,5-dimethyl-4-{[3-(methylsulfonyl)phenyl]sulfonyl}piperazin-1-yl](1H-1,2,3-triazol-5-yl)methanone]
2 nM | C[C@@H]1CN(C(=O)c2cnn[nH]2)[C@@H](C)CN1S(=O)(=O)c1ccc(F)c(F)c1 [Example 82, {(2S,5R)-4-[(3,4-difluorophenyl)sulfonyl]-2,5-dimethylpiperazin-1-yl}(1H-1,2,3-triazol-5-yl)methanone]
3 nM | C[C@@H]1CN(C(=O)c2cnn[nH]2)[C@@H](C)CN1S(=O)(=O)c1cccc(C#N)c1 [Example 83, 3-{[(2R,5S)-2,5-dimethyl-4-(1H-1,2,3-triazol-5-ylcarbonyl)piperazin-1-yl]sulfonyl}benzonitrile]
37 nM | C[C@@H]1CN(C(=O)c2cnn[nH]2)[C@@H](C)CN1S(=O)(=O)c1ccccc1S(C)(=O)=O [Example 84, [(2S,5R)-2,5-dimethyl-4-{[2-(methylsulfonyl)phenyl]sulfonyl}piperazin-1-yl](1H-1,2,3-triazol-5-yl)methanone]
2 nM | C[C@@H]1CN(C(=O)c2cnn[nH]2)[C@@H](C)CN1S(=O)(=O)c1cccc(OC(F)(F)F)c1 [Example 85, [(2S,5R)-2,5-dimethyl-4-{[3-(trifluoromethoxy)phenyl]sulfonyl}piperazin-1-yl](1H-1,2,3-triazol-5-yl)methanone]

IC50 | SMILES
32 nM | C[C@@H]1CN(C(=O)c2cnn[nH]2)[C@@H](C)CN1S(=O)(=O)c1ccccc1-c1ccccc1 [Example 86, [(2S,5R)-4-(biphenyl-2-ylsulfonyl)-2,5-dimethylpiperazin-1-yl](1H-1,2,3-triazol-5-yl)methanone]
2 nM | COc1cccc(S(=O)(=O)N2C[C@H](C)N(C(=O)c3cnn[nH]3)C[C@H]2C)c1 [Example 87, {(2S,5R)-4-[(3-methoxyphenyl)sulfonyl]-2,5-dimethylpiperazin-1-yl}(1H-1,2,3-triazol-5-yl)methanone]
79 nM | C[C@@H]1CN(C(=O)c2cnn[nH]2)[C@@H](C)CN1S(=O)(=O)Cc1c(F)cccc1F [Example 88, {(2S,5R)-4-[(2,6-difluorobenzyl)sulfonyl]-2,5-dimethylpiperazin-1-yl}(1H-1,2,3-triazol-5-yl)methanone]
2 nM | C[C@@H]1CN(C(=O)c2cnn[nH]2)[C@@H](C)CN1S(=O)(=O)c1cc(Cl)ccc1C(F)(F)F [Example 89, [(2S,5R)-4-{[5-chloro-2-(trifluoromethyl)phenyl]sulfonyl}-2,5-dimethylpiperazin-1-yl](1H-1,2,3-triazol-5-yl)methanone]
5 nM | C[C@@H]1CN(C(=O)c2cnn[nH]2)[C@@H](C)CN1S(=O)(=O)c1cc(C(F)(F)F)cc(C(F)(F)F)c1 [Example 90, [(2S,5R)-4-{[3,5-bis(trifluoromethyl)phenyl]sulfonyl}-2,5-dimethylpiperazin-1-yl](1H-1,2,3-triazol-5-yl)methanone]
1 nM | C[C@@H]1CN(C(=O)c2cnn[nH]2)[C@@H](C)CN1S(=O)(=O)c1ccc(F)c(Cl)c1 [Example 91, {(2S,5R)-4-[(3-chloro-4-fluorophenyl)sulfonyl]-2,5-dimethylpiperazin-1-yl}(1H-1,2,3-triazol-5-yl)methanone]
1 nM | Cc1cc(C)cc(S(=O)(=O)N2C[C@H](C)N(C(=O)c3cnn[nH]3)C[C@H]2C)c1 [Example 92, {(2S,5R)-4-[(3,5-dimethylphenyl)sulfonyl]-2,5-dimethylpiperazin-1-yl}(1H-1,2,3-triazol-5-yl)methanone]
30 nM | C[C@@H]1CN(S(=O)(=O)c2ccc(Br)cc2)C[C@H](C)N1C(=O)c1cnn[nH]1 [Example 93, {(2R,6S)-4-[(4-bromophenyl)sulfonyl]-2,6-dimethylpiperazin-1-yl}(1H-1,2,3-triazol-5-yl)methanone]
20 nM | C[C@@H]1CN(S(=O)(=O)c2ccc(Cl)cc2)C[C@H](C)N1C(=O)c1cnn[nH]1 [Example 95, {(2R,6S)-4-[(4-chlorophenyl)sulfonyl]-2,6-dimethylpiperazin-1-yl}(1H-1,2,3-triazol-5-yl)methanone]
2 nM | C[C@@H]1CN(S(=O)(=O)c2cccc3ccccc23)C[C@H](C)N1C(=O)c1cnn[nH]1 [Example 96, [(2R,6S)-2,6-dimethyl-4-(naphthalen-1-ylsulfonyl)piperazin-1-yl](1H-1,2,3-triazol-5-yl)methanone]
151 nM | COc1ccc(S(=O)(=O)N2C[C@@H](C)N(C(=O)c3cnn[nH]3)[C@@H](C)C2)cc1 [Example 97, {(2R,6S)-4-[(4-methoxyphenyl)sulfonyl]-2,6-dimethylpiperazin-1-yl}(1H-1,2,3-triazol-5-yl)methanone]
56 nM | C[C@@H]1CN(S(=O)(=O)c2cc(C(F)(F)F)cc(C(F)(F)F)c2)C[C@H](C)N1C(=O)c1cnn[nH]1 [Example 98, [(2R,6S)-4-{[3,5-bis(trifluoromethyl)phenyl]sulfonyl}-2,6-dimethylpiperazin-1-yl](1H-1,2,3-triazol-5-yl)methanone]
3 nM | Cc1ccc(C)c(S(=O)(=O)N2C[C@@H](C)N(C(=O)c3cnn[nH]3)[C@@H](C)C2)c1 [Example 99, {(2R,6S)-4-[(2,5-dimethylphenyl)sulfonyl]-2,6-dimethylpiperazin-1-yl}(1H-1,2,3-triazol-5-yl)methanone]
20 nM | C[C@@H]1CN(S(=O)(=O)c2ccc(F)c(Cl)c2)C[C@H](C)N1C(=O)c1cnn[nH]1 [Example 100, {(2R,6S)-4-[(3-chloro-4-fluorophenyl)sulfonyl]-2,6-dimethylpiperazin-1-yl}(1H-1,2,3-triazol-5-yl)methanone]
399 nM | C[C@@H]1CN(S(=O)(=O)c2ccc(OC(F)(F)F)cc2)C[C@H](C)N1C(=O)c1cnn[nH]1 [Example 101, [(2R,6S)-2,6-dimethyl-4-{[4-(trifluoromethoxy)phenyl]sulfonyl}piperazin-1-yl](1H-1,2,3-triazol-5-yl)methanone]
